Results: patent publication US20200216906A1, “METHODS AND COMPOSITIONS RELATING TO THE DIAGNOSIS AND TREATMENT OF CANCER” (PRESIDENT AND FELLOWS OF HARVARD COLLEGE, priority 2015, published 2020)
Structures can show the parent of a compound that is named as a salt. Where two headings read alike, the source gives them in different places.

How the values were obtained:
[1] = tested on: Panc02.13 cells expressing vector only (02.13-WT); experiment: Kinetic cell growth assay, Panc02.13 cells expressing vector only; type: cell-based, human; settings: Homo sapiens
Experimental: Panc02.13 cells were used to express YAPS6A (or vector controls) under sparse and dense cultures. Expression was confirmed by confocal microscopy (data not shown). Suppression of the Hippo pathway by expression of non-phospho, active form of YAP (YAPS6A) sensitized pancreatic cancer cells to gemcitabine and 5-FU (FIGS. 6 and 7). Apoptosis was measured by immunobloting with cleaved caspases 3/7 or PARP. Blots were also stained with anti-β-actin for loading control. The effect of Hippo pathway suppression on gemcitabine and 5-FU senstitization was maintained in 3D spheroid culture (FIG. 8). The effects of eleven cytotoxic drugs on the growth of Panc02.13 cells expressing vector only or YAPS6A construct grown under low or high densities were determined (Table 1).
(§1) The effect of gemcitabine on pancreatic cancer cell growth was studied using a kinetic cell growth assay. Pancreatic cancer cells were plated on 96-well plates (Essen ImageLock, Essen Instruments, MI, US) at varying densities (2-4×10^3 for low density or 15-20×10^3 for high density experiments). Small molecule inhibitors at different doses were added 24 hours after plating and cell confluence was monitored with Incucyte Live-Cell Imaging System and software (Essen Instruments). Confluence was observed every hour for 48-144h or until the control (DMSO only) samples reached 100% confluence.
as §1, with “Kinetic Cell growth assay. The” for “The”, “(2-4X103” for “(2-4×10^3”, “15-20X103” for “15-20×10^3”, “Incucyte™” for “Incucyte”

[2] = tested on: pancreatic cancer cell lines; experiment: Kinetic cell growth assay, panel of pancreatic cancer cell lines; type: cell-based, human; settings: for IC50: PDAC cell lines
Summary of the method: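 Pancreatic cancer cells seeded at 2-4×10^3 (low) or 15-20×10^3 (high density) per well; compounds added at several doses 24 h after plating. Confluence imaged live (Incucyte) hourly for 48-144 h or until DMSO controls reached 100% confluence.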

[3] = tested on: Panc02.13 cells expressing the YAPS6A mutant; experiment: 3D spheroid growth assay, Panc02.13 cells expressing YAPS6A; type: cell-based, human; settings: YAP activity increased
[4] = tested on: H2052 mesothelioma cells (LATS2 deletion); experiment: Cell growth of H2052 mesothelioma cells; type: cell-based
[5] = Stability of gemcitabine in culture and conditioned media; type: in vitro ADME
Text: Drug availability mediated by transport or binding or export from the cell is known to be a major determinant of the sensitivity to chemotherapy (O'CONNOR, 2007). […] Furthermore, conditioned media collected from Panc02.13 cells exposed to gemcitabine after 5 days retained 96.7% activity (FIGS. 35A-[…]).

[6] = tested on: Panc02.13 cells expressing YAPS6A; experiment: Gemcitabine and dFdU efflux by LC-MS/MS, Panc02.13 YAPS6A vs GFP; type: in vitro ADME, human; settings: less efflux in YAPS6A (Hippo-OFF), p<0.05
Text: It was considered whether the Hippo pathway might affect the efflux of gemcitabine and/or its metabolites. To assess directly gemcitabine efflux in conditioned media of pancreatic cancer cells both radiolabeled gemcitabine and LC-MS/MS-based methods were used. Panc02.13 cells grown in highly crowded conditions (Hippo-ON) pumped out 2-3-fold more radiolabeled gemcitabine (counts per μg protein) compared with cells grown in less crowded conditions (Hippo-OFF) (FIG. 22A). Another pathway of inactivation and export is the enzymatic conversion of gemcitabine to a uracil derivative (2′,2′-difluorodeoxyuridine, dFdU) by deamination catalyzed by cytidine deaminase (CDA)(Veltkamp et al., 2008). The efflux of gemcitabine and its deaminated metabolite, dFdU was measured by LC-MS/MS (24) in Panc02.13 cells expressing YAPS6A or vector control after gemcitabine treatment (FIG. 22B).

For `Nc1ccn([C@@H]2O[C@H](CO)[C@@H](O)C2(F)F)c(=O)n1` [Gemcitabine, Gemcitabine hydrochloride], the EC50 ([1]; high density, read-out: High density (EC50, nM) 02.13-WT) was 1100 nM, the EC50 ([1]; low density, read-out: Low density (EC50, nM) 02.13-WT) was 1.6 nM and the IC50 ([2]; Homo sapiens, Pancreatic cancer cell, dense culture, read-out: IC50, resistant in dense culture) was > 1000 nM. For the same compound, the IC50 ([2]; Homo sapiens, Pancreatic cancer cell, sparse culture, read-out: IC50, sensitive in sparse culture) was < 100 nM, the EC50 ([2]; Homo sapiens, Pancreatic cancer cell, low crowding conditions (10-25% confluence), all cell lines tested, read-out: EC50 on cell growth) was < 200 nM and the “Dependence of cellular response on cell crowding” value ([2]; seven PDAC cell lines, threshold >100 fold difference in EC50) was “dependent on cell crowding”. For the same compound, the “Density dependence of efficacy” value ([2]; seven pancreatic cancer cell lines, sparse and dense conditions) was “density-dependent”, the “Efficacy in inhibiting cell growth when the Hippo pathway was inhibited” value [3] was “increased efficacy in inhibiting cell growth” and the “Sensitivity of mesothelioma cells harboring LATS2 deletion” value [4] was “sensitive”. The “Activity retained in conditioned media” value ([5]; conditioned media from Panc02.13 cells after 5 days) was 96.7%, the “Lability in culture media” value ([5]; culture media) was “not labile” and the “Gemcitabine effluxed, YAPS6A vs GFP expressing cells” value [6] was 10 fold.
